Measurements as given in patent US10703764B2, “Benzopiperazine compositions as BET bromodomain inhibitors” (FORMA Therapeutics, Inc., priority 2013, dated 2020).
Read-outs that look alike come from different tables or passages of the source.

Columns and labels:
[1] = biological target: T1, BRD4 BD1 (Homo sapiens, UniProt O60885); assay: AlphaScreen binding assay, BRD4 Bromodomain 1
T1 construct: made in house
Outline: (§1)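 An AlphaScreen competition format was used with His-BRD4 BD1 or BD2 and biotin-H4 K5/8/12/16-acetyl peptide, each at matched final levels of 50 nM (BD1) or 100 nM (BD2). Incubation in HEPES/NaCl buffer with 0.1% BSA and 0.01% Triton X-100 ran ≥1 h before IC50 determination.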

[2] = biological target: T2, BRD4 BD2 (Homo sapiens, UniProt O60885); assay: AlphaScreen binding assay, BRD4 Bromodomain 2
T2 construct: made in house
Outline: as §1

[3] = tested on: MV4-11 cells; assay: Oncology cell growth assay (3-day proliferation, CellTiter-Glo); assay type: cell-based; details: Homo sapiens, AML cell line MV4-11, 72 hours, compounds grouped by IC50 range, read-out: MV4-11 IC50 (inhibition of proliferation, gIC50)
Outline: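 MV4-11 AML cells (RPMI 1640, 10% FBS) plated at 3000 cells/well and exposed 72 h to compound at final 10 to 0.0045 μM (3-fold series). Viability read by CellTiter-Glo luminescence; gIC50 from four-parameter logistic fit between DMSO control and no-cell background.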

Row | Compound | IC50 [1] [nM] | IC50 [2] [nM] | IC50 ([3]; MV4-11, 72 h) [nM] | IC50 [3] [nM]
1 | CCS(=O)(=O)Nc1cccc(-c2ccc3c(c2)N(C(=O)c2ccco2)C[C@H](C)N3C(C)=O)c1 [Example I-876] | 100 to 1000 | < 50 | 100 to 500 | –
2 | CC(=O)N1c2ccc(-c3cccc(S(C)(=O)=O)c3)cc2N(C(=O)OC2CCCCC2)C[C@@H]1C [Example I-1225] | 100 to 1000 | 50 to 500 | 100 to 500 | –
3 | CC(=O)N1c2ccc(-c3cnn(CCC(N)=O)c3)cc2N(C(=O)OC(C)C)C[C@@H]1C [Example I-606] | 100 to 1000 | < 50 | 100 to 500 | –
4 | CCOC(=O)N1C[C@H](C)N(C(=O)C2CC2)c2ccc(-c3cnn(C4CC4)c3)cc21 [Example I-379] | 100 to 1000 | 50 to 500 | 100 to 500 | –
5 | CC(=O)N1c2ccc(-c3ccc(S(=O)(=O)CC4CC4)cc3)cc2N(C(=O)C2CC2)C[C@@H]1C [Example I-1074] | 1000 to 10000 | 50 to 500 | > 500 | –
6 | CC(=O)N1c2ccc(-c3ccc(S(=O)(=O)N4CCOCC4)cc3)cc2N(C(=O)c2ccco2)C[C@@H]1C [Example I-275] | 1000 to 10000 | 50 to 500 | 100 to 500 | –
7 | CC(=O)N1c2ccc(-c3cnn(C4CC4)c3)cc2N(C(=O)Oc2ccc3c(c2)ncn3C)C[C@@H]1C [Example I-1205] | 100 to 1000 | < 50 | 100 to 500 | –
8 | CC(=O)N1c2ccc(-c3cccc(S(=O)(=O)N(C)C)c3)cc2N(C(=O)OC(C)C)C[C@@H]1C [Example I-1049] | 1000 to 10000 | 50 to 500 | 100 to 500 | –
9 | CC(C)OC(=O)N1C[C@H](C)N(C(=O)C2CC2)c2ccc(-c3cnn(CC4COC4)c3)cc21 [Example I-643] | 100 to 1000 | 50 to 500 | 100 to 500 | –
10 | COC(=O)N1c2ccc(-c3cnn(C4CC4)c3)cc2N(C(=O)OCC2CC2)C[C@@H]1C [Example I-996] | 100 to 1000 | > 500 | > 500 | –
11 | CC(=O)N1c2ccc(-c3ccc(S(=O)(=O)NCCO)cc3)cc2N(C(=O)C2CC2)C[C@@H]1C [Example I-1035] | 1000 to 10000 | 50 to 500 | > 500 | –
12 | COc1ccccc1OC(=O)N1C[C@H](C)N(C(C)=O)c2ccc(-c3ccc(S(C)(=O)=O)cc3)cc21 [Example I-227] | 100 to 1000 | < 50 | < 100 | –
13 | CC(=O)N1c2ccc(-c3cnn(CCN4CCCS4(=O)=O)c3)cc2N(C(=O)OC(C)C)C[C@@H]1C [Example I-597] | 100 to 1000 | 50 to 500 | 100 to 500 | –
14 | CC(=O)N1c2ccc(-c3cccc(S(N)(=O)=O)c3)cc2N(C(=O)OC2CCCCC2)C[C@@H]1C [Example I-1219] | 100 to 1000 | < 50 | < 100 | –
15 | CC(=O)N1c2ccc(-c3ccc(N4CCCS4(=O)=O)cc3)cc2N(C(=O)Oc2cccnc2)C[C@@H]1C [Example I-1286] | 100 to 1000 | 50 to 500 | 100 to 500 | –
16 | CC(=O)N1c2ccc(-c3cnn(C4COC4)c3)cc2N(C(=O)Oc2ccccc2)C[C@@H]1C [Example I-88, (S)-phenyl 4-acetyl-3-methyl-7-(1-(oxetan-3-yl)-1H-pyrazol-4-yl)-3,4-dihydroquinoxaline-1(2H)-carboxylate] | 100 to 1000 | < 50 | < 100 | –
17 | CC(=O)N1c2ccc(-c3ccc(S(=O)(=O)C4CC4)cc3)cc2N(C(=O)OC2CCOCC2)C[C@@H]1C [Example I-1216] | 100 to 1000 | 50 to 500 | 100 to 500 | –
18 | CC(=O)N1c2ccc(-c3ccc(NS(C)(=O)=O)c(C)c3)cc2N(C(=O)OC(C)C)C[C@@H]1C [Example I-1174] | 100 to 1000 | 50 to 500 | 100 to 500 | –
19 | CC(=O)N1c2ccc(-c3ccc(F)c(S(C)(=O)=O)c3)cc2N(C(=O)OC(C)C)C[C@@H]1C [Example I-1101] | 1000 to 10000 | 50 to 500 | > 500 | –
20 | CNC(=O)c1ccc(-c2ccc3c(c2)N(C(=O)c2ccco2)C[C@H](C)N3C(C)=O)cc1 [Example I-824] | 1000 to 10000 | < 50 | 100 to 500 | –
21 | COC(=O)N1c2ccc(-c3cnn(C(C)(C)C)c3)cc2N(C(=O)OC(C)C)C[C@@H]1C [Example I-332] | 100 to 1000 | > 500 | > 500 | –
22 | CCOC(=O)N1C[C@H](C)N(C(C)=O)c2ccc(-c3ccc(OCCS(C)(=O)=O)cc3)cc21 [Example I-1102] | 100 to 1000 | 50 to 500 | > 500 | –

Row | Compound | IC50 [1] [nM] | IC50 [2] [nM] | IC50 ([3]; MV4-11, 72 h) [nM] | IC50 [3] [nM]
23 | CC(=O)N1c2ccc(-c3ccc(N4CCOCC4)cc3)cc2N(C(=O)OC(C)C)C[C@@H]1C [Example I-1061] | 1000 to 10000 | 50 to 500 | > 500 | –
24 | CC(=O)N1c2ccc(-c3ccc(N4CCCS4(=O)=O)cc3)cc2N(C(=O)Oc2ccc(F)cc2F)C[C@@H]1C [Example I-1011] | 100 to 1000 | < 50 | 100 to 500 | –
25 | CC(=O)N1c2ccc(-c3cnn(C[C@H]4CCNC4)c3)cc2N(C(=O)OC(C)C)C[C@@H]1C [Example I-688] | 100 to 1000 | 50 to 500 | 100 to 500 | –
26 | CC(=O)N1c2ccc(-c3ccc(N(C)S(C)(=O)=O)cc3)cc2N(C(=O)Oc2cccnc2)C[C@@H]1C [Example I-1292] | 100 to 1000 | 50 to 500 | 100 to 500 | –
27 | CC(=O)N1c2ccc(-c3cnn(Cc4ccno4)c3)cc2N(C(=O)C2CC2)C[C@@H]1C [Example I-663] | 100 to 1000 | 50 to 500 | 100 to 500 | –
28 | CC(=O)N1c2ccc(-c3ccc(N4CCN(C)CC4)cc3)cc2N(C(=O)c2ccco2)C[C@@H]1C [Example I-874] | 100 to 1000 | < 50 | 100 to 500 | –
29 | CNS(=O)(=O)c1ccc(-c2ccc3c(c2)N(C(=O)OC2CCOCC2)C[C@H](C)N3C(C)=O)cc1 [Example I-1262] | 100 to 1000 | 50 to 500 | 100 to 500 | –
30 | CC(=O)N1c2ccc(-c3ccccc3F)cc2N(C(=O)COc2ccccc2)C[C@@H]1C [Example I-794] | 1000 to 10000 | > 500 | > 500 | –
31 | COC(=O)N1c2ccc(-c3cnn(C4CC4)c3)cc2N(C(=O)C2CC2)C[C@@H]1C [Example I-42, (S)-methyl 4-(cyclopropanecarbonyl)-6-(1-cyclopropyl-1H-pyrazol-4-yl)-2-methyl-3,4-dihydroquinoxaline-1 (2H)-carboxylate] | 100 to 1000 | 50 to 500 | – | 100 to 500
32 | CC(=O)N1c2ccc(-c3ccc4c(c3)CCN4S(C)(=O)=O)cc2N(C(=O)Oc2ccccn2)C[C@@H]1C [Example I-1328] | 100 to 1000 | 50 to 500 | 100 to 500 | –
33 | CC(=O)Nc1cc2c(cc1-c1cnn(CC(C)(C)O)c1)N(C(=O)OC(C)C)C[C@H](C)N2C(C)=O [Example I-205, Isopropyl (S)-6-acetamido-4-acetyl-7-(1-(2-hydroxy-2-methylpropyl)-1H-pyrazol-4-yl)-3-methyl-3,4-dihydroquinoxaline-1(2H)-carboxylate] | 100 to 1000 | 50 to 500 | > 500 | –
34 | CC(=O)N1c2ccc(-c3cnn(CCN(C)C)c3)cc2N(C(=O)C2CC2)C[C@@H]1C [Example I-146, (S)-1-(4-(cyclopropanecarbonyl)-6-(1-(2-(dimethylamino)ethyl)-1H-pyrazol-4-yl)-2-methyl-3,4-dihydroquinoxalin-1 (2H)-yl)ethanone] | 1000 to 10000 | 50 to 500 | > 500 | –
35 | CCOC(=O)N1C[C@H](C)N(C(C)=O)c2ccc(-c3ccc(S(C)(=O)=O)c(F)c3)cc21 [Example I-1084] | 1000 to 10000 | 50 to 500 | > 500 | –
36 | CC(=O)N1c2ccc(-c3ccc(S(C)(=O)=O)cc3)cc2N(C(=O)Oc2ccc(F)cc2)C[C@@H]1C [Example I-234] | 100 to 1000 | < 50 | < 100 | –
37 | CC(=O)N1c2ccc(-c3cnn(CCC#N)c3)cc2N(C(=O)Oc2ccc(F)cc2)C[C@@H]1C [Example I-1018] | < 100 | < 50 | 100 to 500 | –
38 | CC(=O)N1c2ccc(-c3ccc(C(=O)N4CC[C@@H](O)C4)cc3)cc2N(C(=O)OC(C)C)C[C@@H]1C [Example I-581] | 100 to 1000 | 50 to 500 | 100 to 500 | –
39 | CC(=O)N1c2ccc(-c3cnn(C4CC4)c3)cc2N(C(=O)Oc2cccc(C(F)(F)F)c2)C[C@@H]1C [Example I-259] | 1000 to 10000 | < 50 | 100 to 500 | –
40 | CC(=O)N1c2cc(Cl)c(-c3cnn(C4CC4)c3)cc2N(C(=O)OC(C)C)C[C@@H]1C [Example I-208, Isopropyl (S)-4-acetyl-6-chloro-7-(1-cyclopropyl-1H-pyrazol-4-yl)-3-methyl-3,4-dihydroquinoxaline-1 (2H)-carboxylate] | 1000 to 10000 | > 500 | > 500 | –
41 | COc1ccc(-c2ccc3c(c2)N(C(=O)C2CCC2)C[C@H](C)N3C(C)=O)cc1NS(C)(=O)=O [Example I-1140] | 1000 to 10000 | 50 to 500 | 100 to 500 | –
42 | CC(=O)N1c2ccc(-c3ccc(-c4ncco4)cc3)cc2N(C(=O)c2ccco2)C[C@@H]1C [Example I-412] | 1000 to 10000 | < 50 | 100 to 500 | –
43 | CC(=O)N1c2ccc(-c3cccc(S(N)(=O)=O)c3)cc2N(C(=O)OC(C)C)C[C@@H]1C [Example I-1042] | 1000 to 10000 | 50 to 500 | 100 to 500 | –
